Test results as given in patent US8927571B2, “Pyrido[4,3-B]indoles and methods of use” (Medivation Technologies, Inc., priority 2009, dated 2015).

Target: T1, human recombinant serotonin (5-Hydroxytryptamine) 5-HT2A receptor (Homo sapiens, UniProt P28223)
T1 construct: expressed in transfected cells; host or cells: Chinese hamster ovary (CHO-K1) cells
Assay: Serotonin 5-HT2A radioligand binding assay ([3H]Ketanserin)
Conditions: 0.5 nM [3H]Ketanserin, read-out: Percent Inhibition of ligand binding, Serotonin (1 μM) 5-HT2A
Procedure: Compounds of the invention were incubated with 0.5 nM [^3H]Ketanserin for 60 min at 25° C. Non-specific binding was estimated in the presence of 1 μM Mianserin. Receptor proteins were filtered and washed, the filters were then counted to determine [^3H]Ketanserin specifically bound. Compounds were screened at 1 μM or lower, using 1% DMSO as vehicle. Biochemical assay results are presented as the percent inhibition of specific binding in Table 4.

T1 sequence (P28223 whole entry): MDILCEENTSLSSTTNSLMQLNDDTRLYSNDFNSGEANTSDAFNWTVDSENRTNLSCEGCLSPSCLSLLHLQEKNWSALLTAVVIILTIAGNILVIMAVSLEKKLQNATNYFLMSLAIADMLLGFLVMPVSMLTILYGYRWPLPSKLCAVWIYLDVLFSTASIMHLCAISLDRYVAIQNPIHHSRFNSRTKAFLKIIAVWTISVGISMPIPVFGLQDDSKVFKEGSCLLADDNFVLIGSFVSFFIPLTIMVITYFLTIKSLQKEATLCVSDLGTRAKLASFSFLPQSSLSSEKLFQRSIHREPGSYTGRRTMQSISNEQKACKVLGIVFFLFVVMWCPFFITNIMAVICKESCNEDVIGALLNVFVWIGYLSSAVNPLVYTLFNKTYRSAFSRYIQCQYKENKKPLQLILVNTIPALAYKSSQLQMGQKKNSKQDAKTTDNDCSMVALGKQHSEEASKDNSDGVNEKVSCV

## Cc1ccc2c(c1)c1c(n2CC(O)(c2ccccc2)c2ccc(F)cc2)CCN(C)C1 (stereo not shown) [Compound 1, 2-(2,8-dimethyl-3,4-dihydro-1H-pyrido[4,3-b]indol-5(2H)-yl)-1-(4-fluorophenyl)-1-phenylethanol]
  inhibition at 1 µM: 97%
